{"source": "patent US5141943A", "about": "“5-benzyl barbiturate derivatives” (Brown University Research Foundation, priority 1990, dated 1992)", "key": {"[1]": {"target": "uridine phosphorylase", "assay": "Inhibition of uridine phosphorylase (mouse liver cytosol, uridine substrate)", "format": "biochemical", "settings": "for Ki: uridine 1 mM, pH 8, 37° C., 30 min, Dixon plots, read-out: APP Ki (apparent inhibition constant); for uridine phosphorylase inhibition compared with uracil / acyclouridine counterpart or analogue: comparison in words from Table I", "method": "The activity of the 5-benzyl barbiturates of this invention as inhibitors of uridine phosphorylase was measured essentially following the procedure of Naguib et al. (vol. 36, Biochem. Pharmac. pp. 2195-2201 (1987)), the disclosure of which is incorporated herein by reference. An abridged description of the protocol is described below.\nMouse livers for these experiments were obtained from Swiss Albino (CDl) mice (Charles River Laboratories, Boston, Mass.). The mice were killed by cervical dislocation, and the livers removed and washed with ice-cold normal saline (0.9%) before any further manipulation.\nThe saline solution was wiped off the organs with tissue paper, and the organs weighed and then cut into smaller pieces in ice-cold homogenization buffer (3:1, v/w) containing 20 mM potassium phosphate (pH 8), 1 mM EDTA, and 1 mM mercaptoethanol. The livers were then homogenized with a polytron homogenizer (Brinkman), and the homogenates centrifuged at 105,000 g for 1 hr at 4°. The supernatant fluids (cytosol) were collected and used as the enzyme source.\nThe assay mixture contained 20 mM potassium phosphate (pH 8), 1 mM EDTA, 1 mM mercaptoethanol, substrate (uridine, 9 mCi/mmol) and 40 μl of enzyme preparation in a final volume of 80 μl. Under these conditions the activity was linear with time and amount of enzyme. Apparent Ki values were estimated from Dixon plots (1/v vs[I]) of the data by a computer program with least squares fitting, using uridine (1 mM) and five different concentrations of the inhibitor within the range of 0.0625 μM and 1.0 μM.\nIncubation was carried out at 37° C., for 30 min. The reaction was terminated by immersing the reaction tubes (1 ml Eppendorf tubes) in boiling water for 1 min. and then freezing the reaction tubes for at least 20 min. Proteins were removed by centrifugation, and 5 μl of the supernatant fluid spotted on silica gel TLC plates which had been prespotted with 5 μl of a standard mixture of 10 mM each uridine and uracil. The plates were then developed in a mixture of chloroform and methanol (90:10, v/v). Uridine and uracil were identified by UV quenching. (Rf values for uridine and uracil are 0.09 and 0.39, respectively.) Spots were then cut out and counted in 20 ml of Omnifluor-based scintillant.\nProtein concentrations were determined by the method of Bradford, (Bradford, M. M., vol. 72, Analyt. Biochem. p. 248 (1976)) as described by the Bio-Rad Laboratories (Bio-Rad Laboratories, Bulletin 1069, Bio-Rad Laboratories, Richmond, Calif. (1979)), using bovine […] as a standard."}, "[2]": {"assay": "Solubility in water at room temperature", "format": "physicochemical"}, "[3]": {"settings": "prolonged AZT administration, or high doses of uridine (background); cited from earlier work"}, "[4]": {"settings": "in water at room temperature; acyclouridines of the art (background); cited from earlier work"}, "[5]": {"target": "uridine phosphorylase", "settings": "*calculated from Niedzwicki, J. G. et al.; read-out: APP Ki (apparent inhibition constant); cited from earlier work"}, "[6]": {"tested_on": "human bone marrow progenitor cells (HBMP)", "settings": "Somadossi et al. 1988; cited from earlier work"}, "[7]": {"settings": "water, in water, at room temperature, read-out: SOL. (solubility)"}}, "note": "Where two headings read alike, the source gives them in different places.", "data": [{"compound": "5-benzyloxybenzylacetyl-1-[(1-hydroxy-2-ethoxy)methyl] barbiturate [BBCAB]", "values": [{"measurement": "Ki", "setting": "[1]", "value": 2.6, "unit": "µM"}, {"measurement": "SOL. (solubility)", "setting": "[2]; in water, at room temperature", "value": "> 3000", "unit": "µM"}]}, {"compound": "Cc1cn([C@H]2C[C@H](N=[N+]=[N-])[C@@H](CO)O2)c(=O)[nH]c1=O", "note": "[AZT, 3'-azido-3'-deoxythymidine]", "values": [{"measurement": "toxic side effects", "setting": "[3]", "value": "suppression of bone marrow growth in the patient"}]}, {"compound": "O=c1[nH]c(=O)n(COCCO)cc1Cc1ccccc1", "note": "[BAU]", "values": [{"measurement": "solubility in water", "setting": "[4]", "value": "about 1 mM"}, {"measurement": "Ki", "setting": "[1]", "value": 3.2, "unit": "µM"}, {"measurement": "solubility", "setting": "[2]; water", "value": 1000, "unit": "µM"}]}, {"compound": "O=C1NC(=O)C(Cc2ccccc2)C(=O)N1", "note": "[BB, 5-benzyl barbiturate]", "values": [{"measurement": "Ki", "setting": "[1]", "value": 44, "unit": "µM"}, {"measurement": "solubility", "setting": "[2]; [7]", "value": "> 3000", "unit": "µM"}]}, {"compound": "O=C1NC(=O)N(COCCO)C(=O)C1Cc1cccc(OCc2ccccc2)c1", "note": "(centres unmarked) [BBAB, 5-benzyloxybenzyl-1-[(1-hydroxy-2-ethoxy)methyl] barbiturate]", "values": [{"measurement": "uridine phosphorylase inhibition compared with uracil / acyclouridine counterpart or analogue", "setting": "[1]", "value": "further improves inhibition"}, {"measurement": "Ki", "setting": "[1]", "value": 0.8, "unit": "µM"}, {"measurement": "water solubility compared with acyclouridines", "setting": "[2]; in water, at room temperature", "value": "significantly greater than that of the acyclouridines"}, {"measurement": "solubility", "setting": "[2]; [7]", "value": "≥ 3000", "unit": "µM"}]}, {"compound": "O=c1[nH]c(=O)n(COCCO)cc1Cc1cccc(OCc2ccccc2)c1", "note": "[BBAU, 5-benzyl-oxybenzyl-acyclouridine]", "values": [{"measurement": "solubility in water", "setting": "[4]", "value": "about 1 mM"}, {"measurement": "Ki", "setting": "[1]", "value": 1.1, "unit": "µM"}, {"measurement": "solubility", "setting": "[2]; water", "value": "≤ 1000", "unit": "µM"}]}, {"compound": "O=C1NC(=O)C(Cc2cccc(OCc3ccccc3)c2)C(=O)N1", "note": "[BBB, 5-benzyloxybenzyl barbiturate]", "values": [{"measurement": "uridine phosphorylase inhibition compared with uracil / acyclouridine counterpart or analogue", "setting": "[1]", "value": "significantly stronger uridine phosphorylase inhibitor than BBU"}, {"measurement": "Ki", "setting": "[1]", "value": 3, "unit": "µM"}, {"measurement": "solubility", "setting": "[2]; [7]", "value": "> 3000", "unit": "µM"}]}, {"compound": "O=c1[nH]cc(Cc2cccc(OCc3ccccc3)c2)c(=O)[nH]1", "note": "[BBU, 5-benzyloxybenzyl uracil]", "values": [{"measurement": "solubility", "setting": "[2]; water", "value": "≤ 1000", "unit": "µM"}]}, {"compound": "O=c1[nH]cc(Cc2ccccc2)c(=O)[nH]1", "note": "[BU]", "values": [{"measurement": "solubility", "setting": "[2]; water", "value": "≤ 1000", "unit": "µM"}, {"measurement": "Ki", "setting": "[5]", "value": 54, "unit": "µM"}]}, {"compound": "O=C1CC(=O)NC(=O)N1", "note": "[Barbiturate, barbituric acid]", "values": [{"measurement": "Ki", "setting": "[1]", "value": "~1500", "unit": "µM"}, {"measurement": "solubility", "setting": "[2]; in water, at room temperature, read-out: SOL. (solubility)", "value": "> 3000", "unit": "µM"}]}, {"compound": "O=c1[nH]c(=O)n(COC(CO)CO)cc1Cc1cccc(OCc2ccccc2)c1", "note": "[HM-BBAU]", "values": [{"measurement": "solubility in water", "setting": "[4]", "value": "about 1 mM"}]}, {"compound": "COc1cccc(CC2C(=O)NC(=O)N(COCCOC(C)=O)C2=O)c1", "note": "(centres unmarked) [MBCAB, 5-Methoxybenzylacetyl acyclo barbiturate]", "values": [{"measurement": "Ki", "setting": "[1]", "value": 1.9, "unit": "µM"}, {"measurement": "solubility", "setting": "[2]; [7]", "value": "> 3000", "unit": "µM"}]}, {"compound": "Nc1ccn([C@@H]2O[C@H](CO)[C@@H](O)[C@H]2O)c(=O)n1", "note": "[cytidine]", "values": [{"measurement": "reversal of toxic effects of AZT", "setting": "[6]", "value": "to a lesser extent"}]}, {"compound": "O=c1ccn([C@@H]2O[C@H](CO)[C@@H](O)[C@H]2O)c(=O)[nH]1", "note": "[uridine]", "values": [{"measurement": "toxic side effects", "setting": "[3]", "value": "toxic side effects, such as phlebitis and pyrogenic reactions"}, {"measurement": "reversal of toxic effects of AZT", "setting": "[6]", "value": "can reverse the toxic effects of AZT in human bone marrow progenitor cells (HBMP)"}]}]}
